# Experimental data taken from patent publication US10681909B2, “Herbicidal triazoles” (FMC Corporation, priority 2014, dated 2020).
# Tests used:
# [1] = test system: barnyardgrass; experiment: Test C postemergence; type: in vivo, Echinochloa crus-galli
# Procedure, shortened: (§1)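 Preemergence: seeds sown in loam soil–sand blend and treated with test chemicals formulated in a non-phytotoxic solvent mixture containing a surfactant. Postemergence: plants grown in peat moss/vermiculite-based medium and sprayed with the same formulation at 2 to 18 cm height (1- to 4-leaf stage).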
# [2] = test system: barnyardgrass; experiment: Test A preemergence; type: in vivo, Echinochloa crus-galli; conditions: 0 to 100 scale (0 no effect, 100 complete control)
# Procedure, shortened: (§2)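 Loam/sand soil mix; compound in non-phytotoxic solvent + surfactant. Pre: directed soil spray right after planting seed. Post: potted plants 2–10 cm, 1–2 leaf stage, sprayed with same formulation.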
# [3] = test system: ryegrass, Italian; experiment: Test C postemergence; type: in vivo, Lolium multiflorum
# Procedure, shortened: as §1
# [4] = test system: wheat; experiment: Test A postemergence; type: in vivo, Triticum aestivum; conditions: 0 to 100 scale (0 no effect, 100 complete control), approx. 10 d
# Procedure, shortened: as §2
# [5] = test system: soybean; experiment: Test C postemergence; type: in vivo, Glycine max
# Procedure, shortened: as §1
# [6] = test system: blackgrass; experiment: Test C postemergence; type: in vivo, Alopecurus myosuroides
# Procedure, shortened: as §1
# [7] = test system: buckwheat, wild; experiment: Test D preemergence; type: in vivo, Polygonum convolvulus; conditions: for Plant response rating (0 to 100), Buckwheat, Wild: 16 g ai/ha, 0 is no effect, 100 is complete control; for Plant response rating: Buckwheat, Wild: scale 0 to 100
# Procedure, shortened: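 Pre: sown in silt loam, treated at planting. Post: grown in peat/vermiculite medium, treated at 1- to 4-leaf stage (2–18 cm). Compounds in non-phytotoxic solvent plus surfactant. Kept 14–21 d in controlled environment, then scored visually vs controls. Dash = no test result.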
# [8] = test system: pigweed; experiment: Test A preemergence; type: in vivo, Amaranthus retroflexus; conditions: 0 to 100 scale (0 no effect, 100 complete control)
# Procedure, shortened: as §2
# [9] = test system: waterhemp; experiment: Test C postemergence; type: in vivo, Amaranthus rudis
# Procedure, shortened: as §1
# [10] = test system: galium; experiment: Test C postemergence; type: in vivo, Galium aparine
# Procedure, shortened: as §1
# [11] = test system: ducksalad; experiment: Test B flooded paddy test; type: in vivo, Heteranthera limosa; conditions: 250 g ai/ha, applied to paddy water at 2-leaf stage, visual rating after 13 to 15 d, scale 0 (no effect) to 100 (complete control)
# Procedure, shortened: (§3)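 Pots were flooded to 3 cm above the soil at treatment, and compounds were applied directly into the paddy water. That depth was held throughout. After 13 to 15 d in a greenhouse, plants were rated visually against untreated controls.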
# [12] = test system: sedge, umbrella; experiment: Test B flooded paddy test; type: in vivo, Cyperus difformis; conditions: 250 g ai/ha, applied to paddy water at 2-leaf stage, visual rating after 13 to 15 d, scale 0 (no effect) to 100 (complete control)
# Procedure, shortened: as §3
# [13] = test system: foxtail, giant; experiment: Test A postemergence; type: in vivo, Setaria faberii; conditions: 0 to 100 scale (0 no effect, 100 complete control), approx. 10 d
# Procedure, shortened: as §2
# [14] = test system: corn; experiment: Test C postemergence; type: in vivo, Zea mays
# Procedure, shortened: as §1
structure (smiles),measurement,setting,value
COc1nc(-c2ccc(Cl)cc2)nn1Cc1ccnc(C(F)(F)F)c1 [Compound 28],Plant response rating (scale of 0 to 100 where 0 is no effect and 100 is complete control),[1]; 31 g ai/ha,15
same,Plant response rating (scale of 0 to 100 where 0 is no effect and 100 is complete control),[1]; 62 g ai/ha,15
same,Plant response rating (scale of 0 to 100 where 0 is no effect and 100 is complete control),[1]; 125 g ai/ha,15
same,Plant response rating (scale of 0 to 100 where 0 is no effect and 100 is complete control),[1]; 250 g ai/ha,25
same,"Plant response rating, Barnyardgrass",[2]; 125 g ai/ha,30
same,"Plant response rating, Barnyardgrass","[2]; 500 g ai/ha, approx. 10 d",90
same,Plant response rating (scale of 0 to 100 where 0 is no effect and 100 is complete control),[3]; 31 g ai/ha,5
same,Plant response rating (scale of 0 to 100 where 0 is no effect and 100 is complete control),[3]; 62 g ai/ha,5
same,Plant response rating (scale of 0 to 100 where 0 is no effect and 100 is complete control),[3]; 125 g ai/ha,10
same,Plant response rating (scale of 0 to 100 where 0 is no effect and 100 is complete control),[3]; 250 g ai/ha,15
same,"Plant response rating, Wheat",[4]; 125 g ai/ha,0
same,"Plant response rating, Wheat",[4]; 500 g ai/ha,10
same,Plant response rating (scale of 0 to 100 where 0 is no effect and 100 is complete control),[5]; 31 g ai/ha,45
same,Plant response rating (scale of 0 to 100 where 0 is no effect and 100 is complete control),[5]; 62 g ai/ha,70
same,Plant response rating (scale of 0 to 100 where 0 is no effect and 100 is complete control),[5]; 125 g ai/ha,55
same,Plant response rating (scale of 0 to 100 where 0 is no effect and 100 is complete control),[5]; 250 g ai/ha,60
same,Plant response rating (scale of 0 to 100 where 0 is no effect and 100 is complete control),[6]; 31 g ai/ha,10
same,Plant response rating (scale of 0 to 100 where 0 is no effect and 100 is complete control),[6]; 62 g ai/ha,15
same,Plant response rating (scale of 0 to 100 where 0 is no effect and 100 is complete control),[6]; 125 g ai/ha,15
same,Plant response rating (scale of 0 to 100 where 0 is no effect and 100 is complete control),[6]; 250 g ai/ha,25
same,"Plant response rating (0 to 100), Buckwheat, Wild",[7],60
same,"Plant response rating: Buckwheat, Wild",[7]; 31 g ai/ha,65
same,"Plant response rating: Buckwheat, Wild",[7]; 62 g ai/ha,75
same,"Plant response rating: Buckwheat, Wild",[7]; 125 g ai/ha,95
same,"Plant response rating, Pigweed",[8]; 125 g ai/ha,100
same,"Plant response rating, Pigweed","[8]; 500 g ai/ha, approx. 10 d",100
same,Plant response rating (scale of 0 to 100 where 0 is no effect and 100 is complete control),[9]; 31 g ai/ha,98
same,Plant response rating (scale of 0 to 100 where 0 is no effect and 100 is complete control),[9]; 62 g ai/ha,95
same,Plant response rating (scale of 0 to 100 where 0 is no effect and 100 is complete control),[9]; 125 g ai/ha,95
same,Plant response rating (scale of 0 to 100 where 0 is no effect and 100 is complete control),[9]; 250 g ai/ha,98
same,Plant response rating (scale of 0 to 100 where 0 is no effect and 100 is complete control),[10]; 31 g ai/ha,85
same,Plant response rating (scale of 0 to 100 where 0 is no effect and 100 is complete control),[10]; 62 g ai/ha,90
same,Plant response rating (scale of 0 to 100 where 0 is no effect and 100 is complete control),[10]; 125 g ai/ha,90
same,Plant response rating (scale of 0 to 100 where 0 is no effect and 100 is complete control),[10]; 250 g ai/ha,95
same,"Plant response rating, Ducksalad, Flood",[11],90
same,"Plant response rating, Sedge, Umbrella, Flood",[12],100
same,"Plant response rating, Foxtail, Giant",[13]; 125 g ai/ha,70
same,"Plant response rating, Foxtail, Giant",[13]; 500 g ai/ha,90
same,Plant response rating (scale of 0 to 100 where 0 is no effect and 100 is complete control),[14]; 31 g ai/ha,5
same,Plant response rating (scale of 0 to 100 where 0 is no effect and 100 is complete control),[14]; 62 g ai/ha,10
same,Plant response rating (scale of 0 to 100 where 0 is no effect and 100 is complete control),[14]; 125 g ai/ha,15
same,Plant response rating (scale of 0 to 100 where 0 is no effect and 100 is complete control),[14]; 250 g ai/ha,15
Fc1ccc(-c2nc(OCC(F)(F)F)n(Cc3ccnc(C(F)(F)F)c3)n2)cc1 [Compound 30],Plant response rating (scale of 0 to 100 where 0 is no effect and 100 is complete control),[1]; 31 g ai/ha,25
same,Plant response rating (scale of 0 to 100 where 0 is no effect and 100 is complete control),[1]; 62 g ai/ha,20
same,Plant response rating (scale of 0 to 100 where 0 is no effect and 100 is complete control),[1]; 125 g ai/ha,40
same,Plant response rating (scale of 0 to 100 where 0 is no effect and 100 is complete control),[1]; 250 g ai/ha,85
same,"Plant response rating, Barnyardgrass",[2]; 125 g ai/ha,90
same,"Plant response rating, Barnyardgrass","[2]; 500 g ai/ha, approx. 10 d",100
same,Plant response rating (scale of 0 to 100 where 0 is no effect and 100 is complete control),[3]; 31 g ai/ha,20
same,Plant response rating (scale of 0 to 100 where 0 is no effect and 100 is complete control),[3]; 62 g ai/ha,25
same,Plant response rating (scale of 0 to 100 where 0 is no effect and 100 is complete control),[3]; 125 g ai/ha,30
same,Plant response rating (scale of 0 to 100 where 0 is no effect and 100 is complete control),[3]; 250 g ai/ha,50
same,"Plant response rating, Wheat",[4]; 125 g ai/ha,10
same,"Plant response rating, Wheat",[4]; 500 g ai/ha,30
same,Plant response rating (scale of 0 to 100 where 0 is no effect and 100 is complete control),[5]; 31 g ai/ha,25
same,Plant response rating (scale of 0 to 100 where 0 is no effect and 100 is complete control),[5]; 62 g ai/ha,45
same,Plant response rating (scale of 0 to 100 where 0 is no effect and 100 is complete control),[5]; 125 g ai/ha,60
same,Plant response rating (scale of 0 to 100 where 0 is no effect and 100 is complete control),[5]; 250 g ai/ha,75
same,Plant response rating (scale of 0 to 100 where 0 is no effect and 100 is complete control),[6]; 31 g ai/ha,25
same,Plant response rating (scale of 0 to 100 where 0 is no effect and 100 is complete control),[6]; 62 g ai/ha,30
same,Plant response rating (scale of 0 to 100 where 0 is no effect and 100 is complete control),[6]; 125 g ai/ha,40
same,Plant response rating (scale of 0 to 100 where 0 is no effect and 100 is complete control),[6]; 250 g ai/ha,60
same,"Plant response rating (0 to 100), Buckwheat, Wild",[7],70
same,"Plant response rating: Buckwheat, Wild",[7]; 31 g ai/ha,70
same,"Plant response rating: Buckwheat, Wild",[7]; 62 g ai/ha,85
same,"Plant response rating: Buckwheat, Wild",[7]; 125 g ai/ha,85
same,"Plant response rating, Pigweed",[8]; 125 g ai/ha,100
same,"Plant response rating, Pigweed","[8]; 500 g ai/ha, approx. 10 d",100
same,Plant response rating (scale of 0 to 100 where 0 is no effect and 100 is complete control),[9]; 31 g ai/ha,95
same,Plant response rating (scale of 0 to 100 where 0 is no effect and 100 is complete control),[9]; 62 g ai/ha,98
same,Plant response rating (scale of 0 to 100 where 0 is no effect and 100 is complete control),[9]; 125 g ai/ha,95
same,Plant response rating (scale of 0 to 100 where 0 is no effect and 100 is complete control),[9]; 250 g ai/ha,98
same,Plant response rating (scale of 0 to 100 where 0 is no effect and 100 is complete control),[10]; 31 g ai/ha,80
same,Plant response rating (scale of 0 to 100 where 0 is no effect and 100 is complete control),[10]; 62 g ai/ha,80
same,Plant response rating (scale of 0 to 100 where 0 is no effect and 100 is complete control),[10]; 125 g ai/ha,90
same,Plant response rating (scale of 0 to 100 where 0 is no effect and 100 is complete control),[10]; 250 g ai/ha,90
same,"Plant response rating, Ducksalad, Flood",[11],80
same,"Plant response rating, Sedge, Umbrella, Flood",[12],90
same,"Plant response rating, Foxtail, Giant",[13]; 125 g ai/ha,80
same,"Plant response rating, Foxtail, Giant",[13]; 500 g ai/ha,90
same,Plant response rating (scale of 0 to 100 where 0 is no effect and 100 is complete control),[14]; 31 g ai/ha,15
same,Plant response rating (scale of 0 to 100 where 0 is no effect and 100 is complete control),[14]; 62 g ai/ha,10
same,Plant response rating (scale of 0 to 100 where 0 is no effect and 100 is complete control),[14]; 125 g ai/ha,25
same,Plant response rating (scale of 0 to 100 where 0 is no effect and 100 is complete control),[14]; 250 g ai/ha,20
